In the experiment the target is T1, bovine trypsin (Bos taurus, UniProt P00760).
T1 sequence (P00760 24-246): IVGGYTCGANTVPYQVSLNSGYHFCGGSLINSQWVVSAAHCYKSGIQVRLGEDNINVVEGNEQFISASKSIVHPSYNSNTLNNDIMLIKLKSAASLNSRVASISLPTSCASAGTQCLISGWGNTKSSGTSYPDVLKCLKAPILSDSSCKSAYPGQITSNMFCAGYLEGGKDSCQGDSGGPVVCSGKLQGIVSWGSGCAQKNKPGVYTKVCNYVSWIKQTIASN
Put plainly: Trypsin inhibitory activity of peptides (BApNA hydrolysis, OD405; IC50, Ki, residual activity). The class given is biochemical. The conditions noted are these: for IC50: trypsin 50 nM, BApNA 1.22 mM, read-out: IC50. The procedure: The substrates N-succinyl-Ala-Ala-Pro-Phe-p-nitroaniline (AAPFpNA), Nα—Benzoyl-L-arginine-4-nitroaniline hydrochloride (BApNA) and N-succinyl-[…] (AAApNA) are used in competitive binding reaction to determine the inhibitory activities against α-chymotrypsin, bovine trypsin, and porcine pancreatic elastase, respectively. Experiments for α-chymotrypsin and bovine trypsin inhibition were measured in 20 mM CaCl2, 50 mM Tris-HCl buffer (pH 7.8), and that for porcine elastase inhibition was measured in 50 mM Tris-HCl buffer (pH 8.0). The concentration of the peptide was measured using optical density (OD) at 280 nm. The Michaelis constant (Km) of the enzyme hydrolysis substrate is calculated from the initial rate of substrate hydrolysis at 405 nm. The absorbance value of the substrate was measured at 405 nm after complete hydrolysis. All data were processed using nonlinear regression.
• (1) Added 200 μL of reaction buffer (20 mM CaCl2 and 50 mM Tris-HCl, pH 7.8) into the 96-well plate, and preheated at 37° C. for 15 min. Then added 5 μL of different concentrations of substrates (p-Nitroanilide, pNA, 0.5% in DMSO), and mixed by centrifugation at 500 rpm for 1 min. […] The experiment was performed in triplicate. The standard curve was obtained by plotting the OD405 nm value with pNA concentration. • (2) Added 190 μL of reaction buffer (20 mM CaCl2 and 50 mM Tris-HCl, pH 7.8) and 10 μL of 1 μM trypsin into the 96-well plate, and preheated at 37° C. for 15 min. Then added 5 μL of different concentrations of substrates (BApNA, 0.5% in DMSO) and mixed by centrifugation at 500 rpm for 1 min. […] The experiment was performed in triplicate. The corresponding curve was obtained by plotting the OD405 nm value with time. Divided the slope of the curve by the slope of the standard curve and the enzyme concentration to obtain the initial velocity V0 (mM/(min*mM protein). Plotted the initial velocity V0 with the concentration of substrate BApNA using Prism software, and the Michaelis constant Km value of trypsin hydrolyzing BApNA was obtained.
• (1) Added a total 190 μL of reaction buffer (20 mM CaCl2 and 50 mM Tris-HCl, pH 7.8) along with different concentrations of anti-trypsin peptides (BTs) into the pre-cooled 96-well plate, followed by preheating at 37° C., and spined down at 500 rpm for 5 min. Next added 10 μL of 1 μM trypsin, incubated at 37° C., and then spined down at 500 rpm for 10 min. Finally, added 5 μL of 50 mM BApNA, and mixed by centrifugation at 500 rpm for 1 min. The plate was incubated at 37° C. for 260 min, and the absorbance value at 405 nm was measured. The experiment was performed in triplicate. The blank control only contained the reaction buffer and the substrate as the minimum absorption value (Min OD405 nm). The negative control only contained the reaction buffer, the enzyme and the substrate as the maximum absorption value (Max OD405 nm). • (2) In the reaction system of 205 μL, the final concentrations of trypsin and BApNA were 50 nM and 1.22 mM, respectively. • (3) Data statistics
Residual activity of the enzyme (%)=(1−(Max OD405 nm−Sample OD405 nm)/(Max OD405 nm−Min OD405 nm))*100
Plotted the residual activity of the enzyme with […] to obtain the half inhibitory concentration (IC50) of BTs scaffold against trypsin. Then, substituted it into the formula Ki=IC50/(1+S/Km) (S, IC50 and Km were substrate concentration, half inhibitory concentration and Michaelis constant, respectively) to obtain the inhibition constant Ki of BTs scaffold against trypsin.

Where [1] appears, read: Ki=IC50/(1+S/Km), Km 0.33 mM, read-out: Ki.

Like-named read-outs stand apart in the source and are kept apart here. Bridge positions count the residues as written; N and C are the ends. Square brackets hold non-standard residues; d marks the D form. Peptide text beside a SMILES is read from it. Hyp = O=C(O)[C@@H]1C[C@@H](O)CN1

By Ki is commonly meant the equilibrium dissociation constant of an inhibitor or competing ligand from its target. As a reminder, the IC50 is the concentration at which inhibition is half-maximal. For the compound `CC[C@H](C)[C@@H]1NC(=O)[C@@H]2CCCN2C(=O)[C@@H]2CCCN2C(=O)[C@H]([C@@H](C)CC)NC(=O)[C@H](CO)NC(=O)[C@H](CCCCN)NC(=O)[C@H]([C@@H](C)O)NC(=O)[C@H](C)NC(=O)[C@H](CCCNC(=N)N)NC(=O)[C@@H]2C[C@@H](O)CN2C(=O)[C@@H](N)CSSC[C@@H](C(=O)N[C@@H](Cc2ccccc2)C(=O)O)NC1=O` [BT46] (H-C[Hyp]RATKSIPPICF-OH; disulfide 1-12; C-terminus assumed), the “inhibitory activity against trypsin (in words)” value (“inhibitory activity” for short) was “excellent trypsin inhibitory activities” and the IC50 turned out to be 70 nM. The inhibition constant (Ki) under setting [1] is 10 nM.
Take `CC[C@H](C)[C@@H]1NC(=O)[C@@H]2CCCN2C(=O)[C@@H]2CCCN2C(=O)[C@H]([C@@H](C)CC)NC(=O)[C@H](CO)NC(=O)[C@H](CCCCN)NC(=O)[C@H]([C@@H](C)O)NC(=O)[C@H](CC(N)=O)NC(=O)[C@H](CCCNC(=N)N)NC(=O)CNC(=O)[C@@H](N)CSSC[C@@H](C(=O)N[C@@H](Cc2ccccc2)C(=O)O)NC1=O` [BT55] (H-CGRNTKSIPPICF-OH; disulfide 1-12; C-terminus assumed): the “inhibitory activity” value is given as “excellent trypsin inhibitory activities”. Also, the Ki under setting [1] was 60 nM.
Regarding `CC[C@H](C)[C@@H]1NC(=O)[C@@H]2CCCN2C(=O)[C@@H]2CCCN2C(=O)[C@H]([C@@H](C)CC)NC(=O)[C@H](C)NC(=O)[C@H](CCCNC(=N)N)NC(=O)[C@H]([C@@H](C)O)NC(=O)[C@H](C)NC(=O)[C@H](CCCNC(=N)N)NC(=O)CNC(=O)[C@@H](N)CSSC[C@@H](C(=O)N[C@@H](Cc2ccccc2)C(=O)O)NC1=O` [BT22] (H-CGRATRAIPPICF-OH; disulfide 1-12; N-terminus and C-terminus assumed), the “inhibitory activity” value is “reduced their anti-trypsin activities”.
Regarding `CC[C@H](C)[C@@H]1NC(=O)[C@@H]2CCCN2C(=O)[C@@H]2CCCN2C(=O)[C@H]([C@@H](C)CC)NC(=O)[C@H](CO)NC(=O)[C@H](CCCCN)NC(=O)[C@H]([C@@H](C)O)NC(=O)[C@H](CO)NC(=O)[C@H](CCCNC(=N)N)NC(=O)CNC(=O)[C@@H](N)CSSC[C@@H](C(=O)N[C@@H](Cc2ccccc2)C(=O)O)NC1=O` [BT47] (H-CGRSTKSIPPICF-OH; disulfide 1-12; C-terminus assumed), the “inhibitory activity” value is “good inhibitory activities against trypsin” and the 50% inhibitory concentration (IC50) turned out to be 50 nM. For the same compound, the Ki under setting [1] was determined as 10 nM. Under “listed as SEQ ID NO: 47”, the “inhibitory activity” value is given as “excellent trypsin inhibitory activities”. Also, the Residual trypsin activity (peptide 0.000098 μM) was 103.0 ± 5.2%. The Residual trypsin activity (peptide 0.00098 μM) was 105.1 ± 3.6%. Moreover, under “peptide 0.0098 μM”, the Residual trypsin activity amounted to 107.9 ± 5.8%. For the same compound, the Residual trypsin activity (peptide 0.0488 μM) is 57.4 ± 1.1%. Also, for the setting “peptide 0.0780 μM”, the Residual trypsin activity came out at 39.0 ± 3.8%. Further, the Residual trypsin activity (peptide 0.098 μM) was 5.6 ± 0.7%. Also, the Residual trypsin activity (peptide 0.98 μM) is 0.2 ± 0.0%. The Residual trypsin activity (peptide 9.76 μM) was 0.0 ± 0.1%. In addition, the Residual trypsin activity (peptide 97.56 μM) is recorded as 0.1 ± 0.0%.
Take `CC[C@H](C)[C@@H]1NC(=O)[C@@H]2CCCN2C(=O)[C@@H]2CCCN2C(=O)[C@H]([C@@H](C)CC)NC(=O)[C@H](CO)NC(=O)[C@H](CCCCN)NC(=O)[C@H]([C@@H](C)O)NC(=O)[C@H](C)NC(=O)[C@H](CCCNC(=N)N)NC(=O)[C@H](C(C)C)NC(=O)[C@@H](N)CSSC[C@@H](C(=O)N[C@@H](Cc2ccccc2)C(=O)O)NC1=O` [BT71] (H-CVRATKSIPPICF-OH; disulfide 1-12; N-terminus and C-terminus assumed): the “inhibitory activity” value is reported as “excellent trypsin inhibitory activities” and the IC50 amounted to 110 nM. Besides, under setting [1], the Ki was found to be 20 nM.
For `CC[C@H](C)[C@@H]1NC(=O)[C@@H]2CCCN2C(=O)[C@@H]2CCCN2C(=O)[C@H]([C@@H](C)CC)NC(=O)[C@H](CO)NC(=O)[C@H](CCCCN)NC(=O)[C@H]([C@@H](C)O)NC(=O)[C@H](C)NC(=O)[C@H](CCCNC(=N)N)NC(=O)[C@H](CO)NC(=O)[C@@H](N)CSSC[C@@H](C(=O)N[C@@H](Cc2ccccc2)C(=O)O)NC1=O` [BT75] (H-CSRATKSIPPICF-OH; disulfide 1-12; N-terminus and C-terminus assumed) the same measures were “excellent trypsin inhibitory activities”, 40 nM and 8.5 nM.
On to `CC[C@H](C)[C@@H]1NC(=O)[C@@H]2CCCN2C(=O)[C@@H]2CCCN2C(=O)[C@H]([C@@H](C)CC)NC(=O)[C@H](CO)NC(=O)[C@H](CCCCN)NC(=O)[C@H]([C@@H](C)O)NC(=O)[C@H](C)NC(=O)[C@H](CCCNC(=N)N)NC(=O)CNC(=O)[C@@H](N)CSSC[C@@H](C(=O)N[C@@H](Cc2ccccc2)C(=O)N2CCC[C@H]2C(=O)N[C@@H](CC(=O)O)C(=O)O)NC1=O` [BT5] (H-CGRATKSIPPICFPD-OH; disulfide 1-12; N-terminus and C-terminus assumed), for which the “inhibitory activity” value was “enhanced trypsin inhibitory activity”. Also, the Residual trypsin activity (peptide 0.00098 μM) worked out at 104.0 ± 5.2%. Also, under “peptide 0.002439 μM”, the Residual trypsin activity was 108.1 ± 2.6%. Also, the Residual trypsin activity (peptide 0.00488 μM) is reported as 103.7 ± 5.2%. For the setting “peptide 0.0488 μM”, the Residual trypsin activity is 83.1 ± 0.4%. For the same compound, under “peptide 0.098 μM”, the Residual trypsin activity came out at 75.2 ± 5.9%. Under “peptide 0.488 μM”, the Residual trypsin activity came to 3.0 ± 0.2%. For the same compound, the Residual trypsin activity (peptide 0.98 μM) turned out to be 0.7 ± 0.1%. Besides, the Ki (read-out: inhibition constant (Ki) towards trypsin) was determined as 30 nM.
Regarding `CC[C@H](C)[C@@H]1NC(=O)[C@@H]2CCCN2C(=O)[C@@H]2CCCN2C(=O)[C@H]([C@@H](C)CC)NC(=O)[C@H](CO)NC(=O)[C@H](CCCCN)NC(=O)[C@H]([C@@H](C)O)NC(=O)[C@H](Cc2c[nH]cn2)NC(=O)[C@H](CCCNC(=N)N)NC(=O)CNC(=O)[C@@H](N)CSSC[C@@H](C(=O)N[C@@H](Cc2ccccc2)C(=O)O)NC1=O` [BT56] (H-CGRHTKSIPPICF-OH; disulfide 1-12; N-terminus and C-terminus assumed), the concentration for half-maximal inhibition (IC50) is 110 nM. The inhibition constant Ki under setting [1] is 20 nM.
As to `CC[C@H](C)[C@@H]1NC(=O)[C@@H]2CCCN2C(=O)[C@@H]2CCCN2C(=O)[C@H]([C@@H](C)CC)NC(=O)[C@H](CO)NC(=O)[C@H](CCCCN)NC(=O)[C@H]([C@@H](C)O)NC(=O)[C@H](C)NC(=O)[C@H](CCCNC(=N)N)NC(=O)[C@H](CCC(N)=O)NC(=O)[C@@H](N)CSSC[C@@H](C(=O)N[C@@H](Cc2ccccc2)C(=O)O)NC1=O` [BT79] (H-CQRATKSIPPICF-OH; disulfide 1-12; N-terminus and C-terminus assumed), the “inhibitory activity” value is reported as “excellent trypsin inhibitory activities” and the IC50 is 50 nM. Under setting [1], the Ki worked out at 10 nM.
Consider `CC[C@H](C)[C@@H]1NC(=O)[C@H](CCCCN)NC(=O)[C@@H]2CCCN2C(=O)[C@H](C)NC(=O)[C@H](CCCNC(=N)N)NC(=O)CNC(=O)[C@@H](N)CSSC[C@@H](C(=O)N[C@@H](Cc2ccccc2)C(=O)O)NC(=O)[C@H](CCCCN)NC(=O)[C@H](CCCCN)NC(=O)[C@H](CC(C)C)NC1=O` [BT42] (H-CGRAPKILKKCF-OH; disulfide 1-11), for which the IC50 was more than 50000 nM.

For the origin of these results see patent US20230416329A1, “A PEPTIDE WITH DISULFIDE BONDS AND INHIBITORY ACTIVITY AGAINST SERINE PROTEASES, DERIVED HYBRID PEPTIDES THEREOF, AND USES THEREOF” (INSTITUTE OF MATERIA MEDICA , CHINESE ACADEMY OF MEDICAL …, priority 2020, published 2023).
